Converted amounts (≈) assume the structure as drawn. Read-outs that look alike come from different tables or passages of the source. Marks after values point to notes of the source that are not given here.
Key:
E. coli ATCC25922 = test: MIC determination on E. coli ATCC25922 (microdilution, resazurin); assay type: cell-based, Escherichia coli
[1] = test system: L. donovani axenic amastigotes (LV9); test: In vitro antileishmanial evaluation on L. donovani axenic amastigotes (SYBR Green); assay type: cell-based, Leishmania donovani; conditions: read-out: L. donovani Axenic Amastigote IC50 ± SD
Description: L. donovani (MHOM/ET/67/HU3, also called LV9) promastigotes and axenic amastigotes were maintained according to the protocols previously described.
In vitro antileishmanial evaluation on L. donovani axenic amastigotes. This evaluation was performed using the SYBR Green method as previously described. IC50 values were calculated using the ICEstimator version 1.2 software (http://www.antimalarial-icestimator.net/runregression1.2.htm, accessed on 5 April 2023). Miltefosine was used as the reference drug.

[2] = test system: Mycobacterium tuberculosis H37Rv; test: MIC determination for Mycobacterium tuberculosis H37Rv (REMA); assay type: cell-based; conditions: for MIC: read-out: M. tuberculosis H37Rv MIC; for MIC90: read-out: minimum inhibitory concentration (MIC90) on M. tuberculosis H37Rv
S. aureus ATCC25923 = test: MIC determination on S. aureus ATCC25923 (microdilution, resazurin); assay type: cell-based, Staphylococcus aureus
[3] = test system: L. donovani intramacrophage amastigotes; test: In vitro antileishmanial evaluation on intramacrophage amastigotes (RAW 264.7 infected, SYBR Green); assay type: cell-based, Leishmania donovani; conditions: for IC50: read-out: L. donovani Intramacrophage Amastigote IC50 ± SD; for SI (Selectivity Index): CC50 (macrophage RAW 264.7)/IC50 (intramacrophage form of L. donovani)
Description: In vitro antileishmanial evaluation on intramacrophage amastigotes. RAW 264.7 macrophages were infected with L. donovani axenic amastigotes according to a ratio of 10 parasites per macrophage. […] The in vitro treatment was applied 24 h post-infection, and the treatment duration was 48 h. […] The activity of the compounds is expressed as IC50, calculated using the ICEstimator version 1.2 software. Miltefosine was used as the reference drug.

S. aureus ATCC29213 = test: MIC determination on S. aureus ATCC29213; assay type: cell-based, Staphylococcus aureus; conditions: value in parentheses
[4] = Escherichia coli, ATCC25922, 24 h, value outside parentheses, read-out: E. coli ATCC25922 MIC
[5] = Leishmania donovani, LV9 axenic amastigote forms
[6] = Mycobacterium tuberculosis, H37RV, 168 h, REMA, 7 days
[7] = Staphylococcus aureus, ATCC25923, 24 h, value outside parentheses, read-out: S. aureus ATCC25923 MIC
[8] = Leishmania donovani, RAW264.7, RAW 264.7 macrophages infected, treatment 48 h
[9] = Escherichia coli, ATCC25922, value outside parentheses, read-out: E. coli ATCC25922 MIC
[10] = Mycobacterium tuberculosis, H37RV, range for the active compounds
[11] = Staphylococcus aureus, ATCC25923, value outside parentheses, read-out: S. aureus ATCC25923 MIC
[12] = value outside parentheses, read-out: S. aureus ATCC25923 MIC
[13] = Staphylococcus aureus, ATCC29213

Structure (SMILES): O=[N+]([O-])c1ccc(-c2ccc(/C=N/Nc3nc4ccc(Cl)cc4o3)o2)cc1 [Compound 16, 6-chloro-2-[(2E)-2-{[5-(4-nitrophenyl)furan-2-yl]methylidene}hydrazin-1-yl]-1,3-benzoxazole]
- MIC (E. coli ATCC25922; [4]): > 828 µM
- melting point: 190.9 °C
- IC50 [1, 5]: > 100 µM
- MIC [2, 6]: > 100 µM
- MIC (S. aureus ATCC25923; [7]): > 828 µM
- IC50 [3, 8]: > 100 µM

Structure (SMILES): O=C1CSC(=S)N1/N=C/C=C/c1ccc([N+](=O)[O-])o1 [Compound 6, 3-{(E)-[(2E)-3-(5-Nitro-2-furyl)-2-propen-1-ylidene]amino}-2-thioxo-1,3-thiazolidin-4-one]
- MIC (E. coli ATCC25922; [9]): > 861 µM
- IC50 [1, 5]: 0.7 ± 0.1 µM
- MIC [2, 6]: 4.2 µM (≈ 1.25 µg/mL)
- MIC90 [2, 10]: 0.6 to 7.4 µM (≈ 0.178 to 2.2 µg/mL)
- MIC (S. aureus ATCC25923; [11]): 13 µM (≈ 3.87 µg/mL)
- MIC (S. aureus ATCC25923; [12]): 13 µM (≈ 3.87 µg/mL)
- SI (Selectivity Index) [3]: >125
- IC50 [3, 8]: 0.8 ± 0.1 µM
- MIC (S. aureus ATCC29213; [13]): 7 µM (≈ 2.08 µg/mL)
- MIC (S. aureus ATCC29213): 7 µM (≈ 2.08 µg/mL)

Structure (SMILES): O=[N+]([O-])c1ccc(/C=C/C=N/Nc2nc3ccccc3s2)o1 [Compound 5, 2-{(2E)-2-[(2E)-3-(5-Nitro-2-furyl)-2-propen-1-ylidene]hydrazino}-1,3-benzothiazole]
- MIC (E. coli ATCC25922; [9]): > 814 µM
- melting point: 243.1 °C
- IC50 [1, 5]: 2.3 ± 0.3 µM
- MIC [2, 6]: 1 µM (≈ 0.314 µg/mL)
- MIC90 [2, 10]: 0.6 to 7.4 µM (≈ 0.189 to 2.33 µg/mL)
- MIC (S. aureus ATCC25923; [11]): > 814 µM
- SI (Selectivity Index) [3]: >8
- IC50 [3, 8]: 12.4 ± 1.2 µM

Structure (SMILES): O=[N+]([O-])c1ccc(-c2ccc(/C=N/Nc3nccc(C(F)(F)F)n3)o2)cc1 [Compound 14, 2-[(2E)-2-{[5-(4-Nitrophenyl)furan-2-yl]methylidene}hydrazin-1-yl]-4-(trifluoromethyl) pyrimidine]
- MIC (E. coli ATCC25922; [4]): > 669 µM
- melting point: 212.4 to 214.2 °C
- IC50 [1, 5]: 2.9 ± 0.2 µM
- MIC [2, 6]: > 100 µM
- MIC (S. aureus ATCC25923; [7]): > 669 µM
- SI (Selectivity Index) [3]: >8
- IC50 [3, 8]: 11.9 ± 1.1 µM

Structure (SMILES): CCCCCCCCCCCCCCCCOP(=O)([O-])OCC[N+](C)(C)C [Miltefosine, reference compound]
- IC50 [1, 5]: 1.5 ± 0.3 µM
- SI (Selectivity Index) [3]: 9 ^a
- IC50 [3, 8]: 2.2 ± 0.3 µM

Structure (SMILES): O=[N+]([O-])c1ccc(-c2ccc(/C=N/Nc3nncc4ccccc34)o2)cc1 [Compound 9, 1-[(2E)-2-{[5-(4-Nitrophenyl)-2-furyl]methylene}hydrazino]phthalazine]
- MIC (E. coli ATCC25922; [9]): > 711 µM
- melting point: 239.5 to 241.5 °C
- IC50 [1, 5]: 0.2 ± 0.1 µM
- MIC [2, 6]: > 100 µM
- MIC (S. aureus ATCC25923; [11]): > 711 µM
- SI (Selectivity Index) [3]: >333
- IC50 [3, 8]: 0.3 ± 0.1 µM

Structure (SMILES): COc1cc(/C=N/NC(=O)c2ccncc2)ccc1O [Compound 1, N′-[(E)-(4-Hydroxy-3-methoxyphenyl)methylene]isonicotinohydrazide]
- MIC (E. coli ATCC25922; [9]): > 944 µM
- IC50 [1, 5]: 24.9 ± 2.9 µM
- MIC [2, 6]: 0.6 µM (≈ 0.163 µg/mL)
- MIC90 [2, 10]: 0.6 to 7.4 µM (≈ 0.163 to 2.01 µg/mL)
- MIC (S. aureus ATCC25923; [11]): > 944 µM
- SI (Selectivity Index) [3]: >2.5
- IC50 [3, 8]: 40.2 ± 3.1 µM

Structure (SMILES): NNC(=O)c1ccncc1 [Isoniazid, reference compound]
- MIC [2, 6]: 0.4 µM (≈ 0.0549 µg/mL)

Structure (SMILES): [H]/N=C(/N)N[C@H]1[C@H](O)[C@@H](O)[C@H](O[C@@H]2O[C@@H](C)[C@](O)(C=O)[C@H]2O[C@@H]2O[C@@H](CO)[C@H](O)[C@@H](O)[C@@H]2NC)[C@@H](N/C(N)=N\[H])[C@@H]1O [Streptomycin, reference compound]
- MIC [2, 6]: 0.4 µM (≈ 0.233 µg/mL)

Structure (SMILES): O=C(O)c1cn(C2CC2)c2cc(N3CCNCC3)c(F)cc2c1=O [Ciprofloxacin, reference compound]
- MIC (E. coli ATCC25922; [9]): 0.75 µM (≈ 0.249 µg/mL)
- MIC (S. aureus ATCC25923; [11]): 3 µM (≈ 0.994 µg/mL)
- MIC (S. aureus ATCC29213; [13]): 5 µM (≈ 1.66 µg/mL)

Structure (SMILES): O=[N+]([O-])c1ccc(-c2ccc(/C=N/Nc3cnccn3)o2)cc1 [Compound 15, 2-[(2E)-2-{[5-(4-nitrophenyl)furan-2-yl]methylidene}hydrazin-1-yl]pyrazine]
- MIC (E. coli ATCC25922; [4]): > 678 µM
- melting point: 272.2 to 274 °C
- IC50 [1, 5]: 9.9 ± 0.8 µM
- MIC [2, 6]: > 100 µM
- MIC (S. aureus ATCC25923; [7]): > 678 µM
- SI (Selectivity Index) [3]: >4
- IC50 [3, 8]: 23.3 ± 3.1 µM

Structure (SMILES): O=C1CSC(=S)N1/N=C/c1ccc(-c2ccc([N+](=O)[O-])cc2)o1 [Compound 11, 3-[(E)-{[5-(4-Nitrophenyl)-2-furyl]methylene}amino]-2-thioxo-1,3-thiazolidin-4-one]
- MIC (E. coli ATCC25922; [9]): > 737 µM
- melting point: 175 °C
- IC50 [1, 5]: 5.2 ± 0.3 µM
- MIC [2, 6]: > 100 µM
- MIC (S. aureus ATCC25923; [11]): > 737 µM
- IC50 [3, 8]: > 100 µM

Structure (SMILES): O=[N+]([O-])c1ccc(-c2ccc(/C=N/Nc3nc4ccccc4s3)o2)cc1 [Compound 10, 2-[(2E)-2-{[5-(4-Nitrophenyl)-2-furyl]methylene}hydrazino]-1,3-benzothiazole]
- MIC (E. coli ATCC25922; [9]): > 703 µM
- melting point: 271.9 °C
- IC50 [1, 5]: 0.7 ± 0.1 µM
- MIC [2, 6]: > 100 µM
- MIC (S. aureus ATCC25923; [11]): > 703 µM
- IC50 [3, 8]: 5.8 ± 1 µM

Structure (SMILES): COc1cc(/C=N/NC(=O)c2ccc(O)cc2)ccc1O [Compound 2, 4-hydroxy-N′-[(E)-(4-hydroxy-3-methoxyphenyl)methylidene]benzohydrazide]
- MIC (E. coli ATCC25922; [9]): > 894 µM
- IC50 [1, 5]: 2.1 ± 0.1 µM
- MIC [2, 6]: > 100 µM
- MIC (S. aureus ATCC25923; [11]): > 894 µM
- SI (Selectivity Index) [3]: >17
- IC50 [3, 8]: 5.9 ± 0.9 µM

Structure (SMILES): O=C(N/N=C/c1ccc(-c2ccc([N+](=O)[O-])cc2)o1)OCc1ccccc1 [Compound 17, N′-[(E)-[5-(4-nitrophenyl)furan-2-yl]methylidene](benzyloxy)carbohydrazide]
- MIC (E. coli ATCC25922; value outside parentheses, read-out: E. coli ATCC25922 MIC): >701 µM
- IC50 ([1]; LV9 axenic amastigote forms): 12.2 ± 1.6 µM
- MIC ([2]; REMA, 7 days): >100 µM
- MIC (S. aureus ATCC25923; [12]): >701 µM
- IC50 ([3]; RAW 264.7 macrophages infected, treatment 48 h): 32.4 ± 2.8 µM

Structure (SMILES): O=C(N/N=C/c1ccc(-c2ccc([N+](=O)[O-])cc2)o1)c1ccncc1 [Compound 8, N′-{(E)-[5-(4-Nitrophenyl)-2-furyl]methylene}isonicotinohydrazide]
- MIC (E. coli ATCC25922; Escherichia coli, ATCC25922, read-out: E. coli ATCC25922 MIC): > 761 µM
- IC50 ([1]; Leishmania donovani): 16.2 ± 1.2 µM
- MIC ([2]; Mycobacterium tuberculosis, H37RV, 168 h): 0.9 µM (≈ 0.303 µg/mL)
- MIC90 ([2]; Mycobacterium tuberculosis, H37RV): 0.6 to 7.4 µM (≈ 0.202 to 2.49 µg/mL)
- MIC (S. aureus ATCC25923; Staphylococcus aureus, ATCC25923, read-out: S. aureus ATCC25923 MIC): > 761 µM
- SI (Selectivity Index) [3]: >2
- IC50 ([3]; Leishmania donovani, RAW264.7, 48 h): 36.2 ± 1.4 µM

Structure (SMILES): O=[N+]([O-])c1ccc(/C=C/C=N/NN2Cc3ccccc3C=N2)o1 [Compound 4, 2-{(2E)-2-[(2E)-3-(5-Nitro-2-furyl)-2-propen-1-ylidene]hydrazino}phthalazine]
- MIC (E. coli ATCC25922; [9]): > 828 µM
- IC50 [1, 5]: 1.9 ± 0.3 µM
- MIC [2, 6]: 129 µM (≈ 40.2 µg/mL)
- MIC (S. aureus ATCC25923; [11]): > 828 µM
- SI (Selectivity Index) [3]: >166
- IC50 [3, 8]: 0.6 ± 0.1 µM

Structure (SMILES): O=[N+]([O-])c1ccc(-c2ccc(/C=N/Nc3ccc(Br)cn3)o2)cc1 [Compound 13, 5-Bromo-2-[(2E)-2-{[5-(4-nitrophenyl)furan-2-yl]methylidene}hydrazin-1-yl]pyridine]
- MIC (E. coli ATCC25922; [9]): > 661 µM
- IC50 [1, 5]: 54.3 ± 4.5 µM
- MIC [2, 6]: > 100 µM
- MIC (S. aureus ATCC25923; [11]): > 661 µM
- IC50 [3, 8]: > 100 µM

Source: publication PMC10343660, “Mechanochemical Studies on Coupling of Hydrazines and Hydrazine Amides with Phenolic and Furanyl Aldehydes—Hydrazones with Antileishmanial and Antibacterial Activities” (Molecules, 2023)
